Consider 6 compounds from patent US20240383915A1, “OXAZEPINE COMPOUNDS AND USES THEREOF IN THE TREATMENT OF CANCER” (Genentech, Inc., priority 2021, published 2024).

A word on the IC50: it is the point on the concentration scale where inhibition reaches its midpoint.

Assay [1] relates to PC-9 cells. Briefly: PC9 proliferation assay. The note with it: Homo sapiens, PC-9, PC9; read-out: PC9 Prolif IC50 (G12V). The format is cell-based, human.
In assay [2] the test system is SW480 cells. Briefly: SW480 proliferation assay. The format is cell-based. The note with it: Homo sapiens, SW480, SW480; read-out: SW480 Prolif IC50 (G12V).
Assay [3] addresses KRas (Homo sapiens (Human), UniProt P01116). Briefly: KRas GDP HTRF (BODIPY-GDP exchange TR-FRET). The format is biochemical. The method, boiled down:
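Inhibition of SOS1-mediated exchange of BODIPY-GDP on KRAS G12D, started with 3 nM recombinant human SOS1 and 300 nM BODIPY-GDP and read after 60 min. TR-FRET excitation 337 nm, ratio 520/490 nm ×10,000. IC50 from 4-parameter Hill fit of normalized data.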

Assay [4] concerns the target KRas(G12V) (Homo sapiens (Human), UniProt P01116, G12V). Briefly: KRas(G12V) GDP HTRF (BODIPY-GDP exchange TR-FRET). The format is biochemical. A general note: In TR-FRET formats the signal depends on donor and acceptor labels being close together.

Molecules are shown by their SMILES.

Chain of KRas (P01116-2 other isoform, or with tags, fused parts or gaps): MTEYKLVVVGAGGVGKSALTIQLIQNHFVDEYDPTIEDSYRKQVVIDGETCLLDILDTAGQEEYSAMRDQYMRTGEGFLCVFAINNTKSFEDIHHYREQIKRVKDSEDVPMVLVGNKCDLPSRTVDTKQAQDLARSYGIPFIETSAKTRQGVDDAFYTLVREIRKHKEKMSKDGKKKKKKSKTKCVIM
Chain of KRas(G12V) (P01116-2 other isoform, or with tags, fused parts or gaps G12V): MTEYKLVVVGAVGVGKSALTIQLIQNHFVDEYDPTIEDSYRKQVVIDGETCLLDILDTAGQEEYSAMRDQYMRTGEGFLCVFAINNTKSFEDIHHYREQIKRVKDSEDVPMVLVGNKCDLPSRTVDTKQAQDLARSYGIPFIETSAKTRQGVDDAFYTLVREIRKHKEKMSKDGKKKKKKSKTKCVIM

On to `Cc1cc(N)nc(-c2c(Cl)c3c4c(nc(OCC56CCCN5CCC6)nc4c2F)N([C@H](C)c2cccnc2N)CCO3)c1C(F)(F)F` (atropisomer, axis not shown) [Example 147, 6-((R)-4-((R)-1-(2-aminopyridin-3-yl)ethyl)-8-chloro-10-fluoro-2-((tetrahydro-1H-pyrrolizin-7a(5H)-yl)methoxy)-5,6-dihydro-4H-[1,4]oxazepino[5,6,7-de]quinazolin-9-yl)-4-methyl-5-(trifluoromethyl)pyridin-2-amine], for which the half-maximal inhibitory concentration (IC50) in assay [1] came out at 1300 nM; in assay [2], 44 nM; in assay [3] it was 0.18 nM; in assay [4] it was 0.06 nM.
In the same order, the values of `Cc1cc(N)nc(-c2c(Cl)c3c4c(nc(OC[C@@H]5CC[C@H]6CN(S(C)(=O)=O)CCN56)nc4c2F)N([C@H](C)c2cccnc2N)CCO3)c1C(F)(F)F` (atropisomer, axis not shown; (aS)) [Example 125a, 6-((R)-4-((R)-1-(2-aminopyridin-3-yl)ethyl)-8-chloro-10-fluoro-2-(((6S,8aS)-2-(methylsulfonyl)octahydropyrrolo[1,2-a]pyrazin-6-yl)methoxy)-5,6-dihydro-4H-[1,4]oxazepino[5,6,7-de]quinazolin-9-yl)-4-methyl-5-(trifluoromethyl)pyridin-2-amine] are 3700 nM, 23 nM, 0.218 nM and 0.12 nM.
For `C=C1CN2CCC2(COc2nc3c4c(c(Cl)c(-c5nc(N)cc(C)c5C(F)(F)F)c(F)c4n2)OCCN3[C@H](C)c2cccnc2N)C1` (stereo partly drawn) [Example 118, (6R)-6-(4-((R)-1-(2-aminopyridin-3-yl)ethyl)-8-chloro-10-fluoro-2-((3-methylene-1-azabicyclo[3.2.0]heptan-5-yl)methoxy)-5,6-dihydro-4H-[1,4]oxazepino[5,6,7-de]quinazolin-9-yl)-4-methyl-5-(trifluoromethyl)pyridin-2-amine], the IC50 came out at 730 nM in assay [1], 33 nM in assay [2], 0.19 nM in assay [3] and 0.06 nM in assay [4].
The corresponding values for `Cc1cc(N)nc(-c2c(Cl)c3c4c(nc(OC[C@]56CCN5CC(F)(F)C6)nc4c2F)N([C@H](C)c2ccnnc2N)CCO3)c1C(F)(F)F` (atropisomer, axis not shown) [Example 77b, 4-((R)-1-((R)-9-(6-amino-4-methyl-3-(trifluoromethyl)pyridin-2-yl)-8-chloro-2-(((R)-3,3-difluoro-1-azabicyclo[3.2.0]heptan-5-yl)methoxy)-10-fluoro-5,6-dihydro-4H-[1,4]oxazepino[5,6,7-de]quinazolin-4-yl)ethyl)pyridazin-3-amine] are 20000 nM, 65 nM, 0.34 nM and 0.13 nM.
With `Cc1cc(N)nc(-c2c(Cl)c3c4c(nc(OC[C@H]5C[C@H](O)C5)nc4c2F)N([C@H](C)c2cccnc2N)CCO3)c1C(F)(F)F` (atropisomer, axis not shown) [Example 145, (1R,3r)-3-((((R)-9-(6-amino-4-methyl-3-(trifluoromethyl)pyridin-2-yl)-4-((R)-1-(2-aminopyridin-3-yl)ethyl)-8-chloro-10-fluoro-5,6-dihydro-4H-[1,4]oxazepino[5,6,7-de]quinazolin-2-yl)oxy)methyl)cyclobutan-1-ol], the IC50 turned out to be 20000 nM in assay [1], 450 nM in assay [2], 1.2 nM in assay [3] and 0.56 nM in assay [4].
In the same order, the values of `Cc1cc(N)cc(-c2cc3nc(OC[C@@]45CCCN4C[C@H](F)C5)nc4c3c(c2Cl)OCCN4C)c1C(F)(F)F` [Example 39, 3-(8-chloro-2-(((2R,7aS)-2-fluorotetrahydro-1H-pyrrolizin-7a(5H)-yl)methoxy)-4-methyl-5,6-dihydro-4H-[1, 4]oxazepino[5,6,7-de]quinazolin-9-yl)-5-methyl-4-(trifluoromethyl)aniline] are 20000 nM, 20000 nM, 140 nM and 24 nM.
